Data set [1] in a line: Stability in aqueous solution containing 1% DMSO by UV-vis spectroscopy. It is filed as physicochemical. To be noted: over 48 h. Here is the method:
The stability of ligands HL^2 and HL^3 in aqueous solution containing 1% DMSO over 24 and 48 h was monitored by UV–vis spectroscopy (Figure S30 in the Supporting Information). Similarly, the behavior of complexes 1a and 1b as well as 2 and 3 was investigated in aqueous solutions containing 1% DMSO over 12 and 48 h by optical spectroscopy (Figures S31 and S32). […] High thermodynamic and kinetic stability of five-coordinate complexes reported herein can presumably be explained in terms of hard and soft acids and bases theory. Cu^2+ as a borderline metal ion is expected to bind to a soft base, for example, S atom instead of terminal N atom, as is the case for thiosemicarbazides. However, the hard–soft character of the metal ion might be altered by the other ligands attached due to symbiotic effects.[30] This might be the case herein, where bonding of copper(II) to four hard base ligands, namely, to two N atoms (N7 and N15 in Figure 1) and two Cl^– co-ligands, as well as to one borderline base N(pyridine) atom, can reduce the softness of Cu^2+, leading to increased stability of the complexes.

Another data set relates to HCT116. Put plainly: MTT cytotoxicity assay, monolayer culture. To be noted: 72 h continuous drug action, 2D monolayer, read-out: IC50 (μM) ± S.D. HCT116. It is filed as cell-based, human. The text has this: (§1) The cytotoxicity of metal-free indolobenzazocines HL^1–HL^5 and their metal complexes 1a, 1b, and 2–5 was investigated by the colorimetric MTT assay in a panel of four human cancer cell lines, namely, human colon carcinoma HCT116 and LS-174, breast adenocarcinoma MDA-MB-361, and lung adenocarcinoma A549, as well as in human non-malignant cell line MRC-5 maintained as monolayer culture. Cisplatin or cis-diamminedichloridoplatinum(II) (CDDP), a well-known chemotherapeutic agent, was used as a positive control. The results obtained after 72 h of continuous drug action are presented as IC50 values (μM) in Table 1.
(§2) Human tumor cell lines derived from human colorectal carcinoma, LS-174 and HCT116, human breast adenocarcinoma, MDA-MB-361, human lung adenocarcinoma, A549, and non-tumor human fetal lung fibroblast cell line, MRC-5, were maintained as a monolayer culture in the Roswell Park Memorial Institute (RPMI) 1640 nutrient medium (Sigma Chemicals Co, USA). RPMI 1640 medium was prepared in sterile ionized water, supplemented with penicillin (100 IU/mL), streptomycin (200 μg/mL), 4-(2-hydroxyethyl) piperazine-1-ethanesulfonic acid (HEPES) (25 mM), L-glutamine (3 mM), and 10% of heat-inactivated fetal calf serum (FCS) (pH = 7.2). The cells were grown at 37 °C in a humidified atmosphere containing 5% CO2.
(§3) Cells were seeded into 96-well culture plates (Thermo Scientific Nunc) at cell densities of 5000 cells per well (HCT116, A549, and MRC-5) and 8000 cells/well (LS-174 and MDA-MB-361) in 100 μL of cell culture medium and left overnight. Eleven tested compounds were dissolved in DMSO to the stock concentration of 20 mM immediately before the experiment, whereas further dilutions were made in the culture medium so that the final concentration of DMSO never exceeded 1% (v/v). Cisplatin (cis-diamminedichloridoplatinum(II), CDDP) was used as a reference compound. After 72 h of continuous incubation, MTT solution (3-(4.5-dimethylthiazol-2-yl)-2.5-diphenyltetrazolium bromide, Sigma-Aldrich) was added to each well (5 mg/mL).[63] The culture plates were incubated at 37 °C for the next 4 h, and finally, 10% sodium dodecyl sulfate (SDS) was added to dissolve formed formazan crystals. Absorbances were measured after 24 h on a microplate reader (Thermo Labsystems Multiscan EX 200–240 V) at a wavelength of 570 nm.
On the technique in general: Formazan colour is commonly taken as a measure of viable cells.

A further data set has as its system MRC-5. Description: MTT cytotoxicity assay, monolayer culture. It is filed as cell-based, human. Conditions: non-malignant cell line, read-out: IC50 (μM) ± S.D. MRC-5.
Source text: as §1, §2, §3

The next data set deals with A549. Put plainly: MTT cytotoxicity assay, monolayer culture. It is filed as cell-based, human. Conditions: 2D monolayer, read-out: IC50 (μM) ± S.D. A549.
Source text: as §1, §2, §3

A further data set has as its system MDA-MB-361. Put plainly: MTT cytotoxicity assay, monolayer culture. To be noted: 72 h continuous drug action, 2D monolayer, read-out: IC50 (μM) ± S.D. MDA-MB-361. It is filed as cell-based, human.
Source text: as §1, §2, §3

The test system of a further data set is LS-174. Put plainly: MTT cytotoxicity assay, monolayer culture. It is filed as cell-based, human. To be noted: 2D monolayer, read-out: IC50 (μM) ± S.D. LS-174.
Source text: as §1, §2, §3

Data set [2] is described as follows: Solubility in water/1% DMSO. It is filed as physicochemical.
For a further data set, the system named is LS-174 MCTS. Put plainly: MTT assay in 3D multicellular tumor spheroid (MCTS) model. It is filed as cell-based, human. To be noted: 3D MCTS, 72 h continuous drug action, read-out: IC50 (μM) ± S.D. LS-174, 3D cell culture model. The text has this:
(§4) Due to the complex tissue environment, 3D multicellular tumor spheroid (MCTS) models mimic the in vivo architecture closer than 2D cell cultures, thereby allowing more precise prediction of effectiveness of organic drug candidates as well as metal-based ones in animal models.[41]−[44] The efficacy of HL^5, 5, and cisplatin in the 3D MCTS model was investigated in two human colorectal cancer cell lines (CRC) LS-174 and HCT116. We used ultra-low attachment (ULA) plates for the growth of spheroids. Spheroids were incubated for 72 h and then photographed, and IC50 values were determined using MTT assay. Tumor spheroids of diameter >500 μm selected for treatment reflect to a certain extent the tumor complexity as they are composed of several specialized areas and layers where cells show different phenotypic, functional, and metabolic behaviors.[45] They display an organized architecture with an external layer composed of proliferating cells, an intermediate zone composed of quiescent and senescent cells, and an inner apoptotic and necrotic core which is the result of the reduced distribution of nutrients and oxygen in these areas.[46],[47]
(§5) The MCTSs as 3D cell culture models were established by seeding cells at optimized densities between 500 and 1500 cells/well in the ultra-low attachment (ULA) U96-well plate Thermo Scientific Nunclon Sphera in their respective culture media.[34] […]

Another data set has as its system HCT116 MCTS. The description is as above. It is filed as cell-based, human. To be noted: 3D MCTS, 72 h continuous drug action, read-out: IC50 (μM) ± S.D. HCT116, 3D cell culture model.
Source text: as §4, §5

A further data set has as its system HCT116 cells. Put plainly: Annexin V-FITC/PI apoptosis assay by flow cytometry. It is filed as cell-based, human. Conditions: HCT116, 48 h, 3× IC50; non-treated control 2.29%. The text has this: The obtained experimental data are presented in Figure 4 as percentages of early apoptotic cells (Annexin V-positive/PI-negative staining), late apoptotic and necrotic cells (Annexin V-positive/PI-positive staining), and dead cells (Annexin V-negative/PI-positive staining). By the current test (BD Pharmingen protocol)[39] for the cells which are already dead (Annexin V-negative/PI-positive staining), we cannot distinguish between types of the occurred cell death.
Quantitative analysis of apoptotic and necrotic cell death induced by the investigated complexes and CDDP was performed by Annexin V-FITC/PI assay. 2 × 10^5 HCT116 or 3 × 10^5 LS-174 cells were seeded into six-well plates (Thermo Scientific Nunc), and after 24 h of growth, cells were treated with tested compounds or CDDP. Following the 24 h and 48 h incubation time, cells were harvested and resuspended in 200 μL 1 × Binding Buffer (10 mM HEPES/NaOH pH 7.4, 140 mM NaCl, 2.5 mM CaCl2). 100 μL of the cell suspension (∼1 × 10^5 cells) was transferred to a 5 mL round-bottom polystyrene tube (Falcon, Corning) and mixed with 5 μL of both FITC Annexin V (BD Pharmingen[39]) and PI (50 μg/mL in PBS).[65] […] Samples were analyzed using an FACS BD Calibur flow cytometer (Becton–Dickinson, Heidelberg Germany) and Cell Quest computer software.
In general terms: In flow cytometry, cells or beads pass a laser one at a time.

Where two headings read alike, the source gives them in different places.

Broadly, the IC50 is the concentration at which inhibition is half-maximal. With `Cc1ccc(C(C)C)cc1.O=C1NCCc2ccccc2-c2[nH]c3ccc([N+]4=Cc5cccc[n+]5[Ru-]4[Cl])cc3c21.[Cl-]` [1a], the “stability by UV-vis absorption spectra” value in [1] is “remained intact”. Also, the 50% inhibitory concentration (IC50) was 32.9 ± 7.1 µM in the data set with HCT116; 89.8 ± 2.1 µM in the data set with MRC-5 (72 h continuous drug action); 160 ± 18.2 µM in the data set on A549 (72 h continuous drug action); 91.2 ± 3.5 µM in the data set with MDA-MB-361; above 200 µM in the data set with LS-174 (72 h continuous drug action).

As to `Cc1ccc(C(C)C)cc1.O=C1NCCc2ccccc2-c2[nH]c3ccc([N+]4=Cc5cccc[n+]5[Os-]4[Cl])cc3c21.[Cl-]` [1b], the “stability by UV-vis absorption spectra” value in [1] is reported as “remained intact”. The “Solubility in water/1% DMSO” value in data set [2] is on record as at least 1.0 mg mL^–1. Further, the IC50 in the data set with HCT116 was found to be 40.2 ± 6.7 µM; with MRC-5 (72 h continuous drug action), 84.8 ± 6.6 µM; in the data set with A549 (72 h continuous drug action), 91 ± 9.3 µM; in the data set on MDA-MB-361, 71.9 ± 2.6 µM; in the data set on LS-174 (72 h continuous drug action), 182 ± 2.1 µM.

Turning to `N.N.[Cl][Pt][Cl]` [CDDP, cis-diamminedichloridoplatinum(II), reference compound], the IC50 in the data set on LS-174 MCTS turned out to be 17.8 ± 1.2 µM; in the data set on HCT116 MCTS, 19.6 ± 2.2 µM; in the data set with HCT116, 13.6 ± 1.1 µM; with MRC-5 (72 h continuous drug action), 8 ± 1.1 µM; in the data set with A549 (72 h continuous drug action), 17.4 ± 3.5 µM; in the data set with MDA-MB-361, 26.4 ± 3.7 µM. For the same compound, the IC50 in the data set with LS-174 (72 h continuous drug action) came to 19 ± 0.5 µM. For the same compound, the “early apoptotic cells (Annexin V-positive/PI-negative)” value with HCT116 cells turned out to be 19.14%.

In the case of `O=C1NCCc2ccccc2-c2[nH]c3ccc(/N=C/c4ccccn4)cc3c21` [HL^1], the IC50 in the data set on MRC-5 (Homo sapiens, MRC5, 72 h continuous drug action) is 168 ± 15.8 µM; in the data set with A549 (Homo sapiens, A549, 72 h continuous drug action), above 200 µM; with LS-174 (Homo sapiens, LS174, 72 h continuous drug action) it was 191 ± 5.8 µM.

(Values after paper PMC9768754, “Enriching Chemical Space of Bioactive Scaffolds by New Ring Systems: Benzazocines and Their Metal Complexes as Potential Anticancer Drugs” (Inorganic Chemistry, 2022).)
